Row | melting point [°C] | SMILES
1 | 148 to 150 | CC(C)[C@H](NC(=O)OC(C)(C)C)[C@H]1CCn2c(c(C3=C(c4cn(-c5ccccc5)c5ccccc45)C(=O)OC3=O)c3ccccc32)C1
2 | 156 | O=C1NC2(CCC(F)(F)CC2)C(O)=C1c1cc(-c2ccc(Cl)cc2)ccc1Cl
3 | 222 to 224 | CC(C(N)=O)c1ccc(-c2ccc(F)cc2F)c(O)c1 (stereo not drawn)
4 | 212 to 213 | CS(=O)(=O)c1ccc(-c2cnn(CC(F)(F)F)c(=O)c2-c2ccc(S(C)(=O)=O)cc2)cc1
5 | 83 to 85 | CCCCCCCCCCCCCCc1cc(C(=O)O)c[nH]1
6 | 146 to 149 | CCOc1cc(Cc2cnc(N)nc2N)cc(OCC)c1-c1ccc(CNCC(F)(F)F)cc1
7 | 230 to 231 | O=C(O)c1cccc(-c2nc(-c3ccc(C(F)(F)F)cc3)cs2)c1
8 | 204 to 208 | COC(=O)N1Cc2nc(C(=O)O)cn2-c2ccccc21
9 | 208 to 210 | CC(C)(C)OC(=O)N1CCc2c(n(CC(=O)Nc3ccccc3)c3ccc(Cl)c(Cl)c23)CC1
10 | 150 to 151 | O=c1c2c(CCCCCCc3ccccc3)n[nH]c2c2cccnc2n1-c1ccccc1
11 | 188 to 189 | COC(=O)COc1c(Br)cc(-c2c3ccccc3c(Br)c3oc4ccccc4c23)cc1Br
12 | 63 to 70 | CCN1C(Cl)=NC(OC)=NS1(=O)=O
13 | 189 to 191 | C=CCOc1nc2cc(OC)c(OC)cc2c2ncnn12
14 | 259 to 262 | CC(=O)OC1CN(c2c(F)cc3c(=O)c(C(=O)O)cn(C4CC4)c3c2F)C1
15 | 158 to 159 | CC(=O)CCNC(=O)n1cc(F)c(=O)[nH]c1=O
16 | 192 to 193 | CCOC(=O)C1CCCCN1C(=O)[C@H](CCCNC(=N)N)NS(=O)(=O)c1ccc2cc(OC)ccc2c1 (stereo partly drawn)
17 | 108 to 109 | COC(=O)/C=C/[C@H](O)[C@H](Cc1ccccc1)NC(=O)OC(C)(C)C
18 | 105 | COCc1nc(Cl)c(Oc2cc(OC)ccc2Cl)c(Cl)n1
19 | 151 to 153 | COc1nc(NC(=O)NS(=O)(=O)c2cccc3cccnc23)nc(OC)n1
20 | 167 to 170 | O=C1N/C(=C\C2CC2)C(O)=C1c1ccccc1
21 | 194 to 196 | C=C1CC2C(CCC3(C)C2CCC3(O)C(=O)COC(C)=O)C2(C)CCC(=O)C=C12 (stereo not drawn)
22 | 73 to 74 | OCC=Cc1ccc(-c2cnc(CSCCOc3ccccc3)o2)cc1
23 | 72 to 74 | COc1c(C)cccc1C(=N)N

Row | melting point [°C] | SMILES
24 | 206 to 207 | C=CCOC(=O)Nc1ccc(C2=NNC(=O)CC2C)cc1 (stereo not drawn)
25 | 228 to 233 | Cc1cn2nc(-c3ccccc3)nc2cc1C(=O)O
26 | 122 to 124 | ON=Cc1ccccc1OCc1ccc(Cl)cc1
27 | 124 to 126 | CON1C(C)(C)CC(OC(=O)c2ccccc2C(=O)OC2CC(C)(C)N(OC)C(C)(C)C2)CC1(C)C
28 | 175 to 178 | Cc1nc2c(OCc3c(Cl)ccc(N(C)C(=O)CN)c3Cl)cccn2c1Br
29 | 107 to 109 | Cc1c(C)c2c(c3c1NCC3)CC(C)(C)O2
30 | 143 to 146 | CCc1c(C(=O)OC)[nH]c(=O)c(CC(C)C)[n+]1[O-]
31 | 88 to 89 | CC(C)(C)OC(=O)N1CCc2ccccc2CC1
32 | 205 to 218 | COc1ccc(NS(=O)(=O)c2ccc(N3CCC(NCC(O)c4ccc(O)c(NS(C)(=O)=O)c4)CC3)cc2)cc1OC (stereo not drawn)
33 | 217 to 218 | Cc1ccc(-c2ccccc2C(=O)N(C)NC(N)=O)cc1
34 | 42 to 43 | COC(=O)NC(C)(C)c1ccc(C)cc1
35 | 159 to 160 | CCCc1c(C)c(NC(=O)CC(C)(C)C)c(C)c2c1SCC2c1ccc(C(C)C)cc1 (stereo not drawn)
36 | 266 to 271 | O=C1NC(=O)[C@@]2(C[C@@H](C(=O)NCCO[N+](=O)[O-])Oc3ccc(F)cc32)N1
37 | 249 to 251 | Cc1cc(C)c2ncc(NC(=O)C=Cc3cc(C)c(O)c(C)c3)c(-c3ccccc3Cl)c2c1
38 | 153 to 155 | COc1c(NC(=O)c2ccc(-c3ccncc3)cc2)cccc1N1CCN(C)CC1
39 | 33 to 36 | CCOC(=O)c1cnc2c(c1Cl)CCCCCC2
40 | 94 to 96 | O=Cc1cc(C2CC2)nn1Cc1ccc(C(F)(F)F)cc1Cl
41 | 199 to 201 | COc1cc(Cl)c(N=C2NCCN2O)c(Cl)c1
42 | 156 to 157 | CCOCCOC(=O)C(=O)Nc1nc(-c2cc3ccccc3oc2=O)cs1
43 | 210 | CCCC(=O)Nc1ccc2[nH]c(C(=O)O)cc2c1
44 | > 260 | N=C(N)c1ccc(N2CCN(c3ccc(S(=O)(=O)CC(=O)O)cc3)C2=O)cc1
45 | 196 | CC(=O)C1=C(O)C(=C(C)Nc2cccc(NS(C)(=O)=O)c2)C(=O)OC1=O
46 | > 300 | O=C1NC(=O)c2c1c1c3ccc(F)cc3[nH]c1c1c2c2ccc(F)cc2n1C1OC2COC(C2O)C1O (stereo not drawn)

Row | melting point [°C] | SMILES
47 | 146 to 147 | CCOC(=O)NC(=O)C(c1cccc(C)c1)c1ncc(C(F)(F)F)cc1Cl (stereo not drawn)
48 | 120 to 121 | Clc1ccc2ncc(Cl)n2n1
49 | 101 | CCOC(=O)C1=C(COCCOc2ncccn2)NC(C)=C(C(=O)OC)C1c1ccccc1Cl (stereo not drawn)
50 | 183 to 186 | O=c1ccc(-c2ccc(Cl)cc2)c[nH]1
51 | 79.5 to 80 | CC(=O)Oc1cc(CCc2ccccc2)cc(OC(C)=O)c1OC(C)=O
52 | 191 to 194 | Cc1nc(C)c(Cl)c(NCc2ccc(Oc3ccc4ncc([N+](=O)[O-])n4n3)c(OC(F)F)c2)n1
53 | 197 to 198 | C=CCSc1ccc2[nH]c(NC(=O)OC)nc2c1
54 | 135 | CCOc1nc(-c2cccc(Cl)c2)c2cc(C(O)(c3ccc(I)cc3)c3cncn3C)ccc2n1 (stereo not drawn)
55 | 164 to 166 | COc1c(Cl)ccc(-c2cc(N)c(Cl)c(C(=O)NOCC3CC3)n2)c1F
56 | 181 to 184 | COc1ccc(CCNC(=O)C(F)(F)F)c2ccc(=O)[nH]c12
57 | 166 to 168 | CC(=O)n1nc(C(=O)NC2CN(C)CCN(Cc3ccccc3)C2)c2ccccc21 (stereo not drawn)
58 | 252 to 254 | CC(C)OC(=O)c1cc(-n2c(=O)[nH]c3c(c2=O)SCC3)c(F)cc1Cl
59 | 126 | N#Cc1cc([N+](=O)[O-])ccc1Oc1ccccc1
60 | 190 to 193 | N#Cc1ccc(-c2ccc(OCc3ccc4ccccc4n3)cc2)c(-c2ccncc2)c1
61 | 148 | COc1cc(OC)nc(Oc2ccc3ccccc3c2C=NNc2ccccc2)n1
62 | 150 to 152 | CCOC(=O)C(=CNc1nnn[nH]1)C(=O)c1cc(F)c(Cl)nc1Cl
63 | 204 to 205 | C[C@H](O)c1nnc(-c2ccc3occ(-c4cc(F)ccc4Cl)c3c2)o1
64 | 140 | COc1c(C2CCN(CCCCNC(=O)c3ccc(-c4ccc(C#N)cc4)cn3)CC2)ccc2c1CCCC2
65 | 273 to 276 | COc1ccc2ccc3nc(C(N)=O)cn3c2c1
66 | 107 to 110 | CC(=O)c1nc2ccc(Cl)cc2cc1OCc1ccccc1
67 | 70 to 75 | O=C1c2ccccc2C(F)(F)C(F)(F)c2ccccc21
68 | 145 to 146 | CCOC(=O)Nc1nc(Cc2ccccc2)c(C(=O)c2sc(NC(=O)OCC)nc2Cc2ccccc2)s1
69 | 224 to 225 | CNc1nc(-c2ccccc2)c(-c2nc3ccccc3c(=O)n2-c2ccccc2)s1

Row | melting point [°C] | SMILES
70 | 173 | COC(=O)C1CCC(C(=O)Nc2sc3c(c2C(=O)NCc2ccc4c(c2)OCO4)CCCC3)CC1 (stereo not drawn)
71 | 174 to 176 | O=[N+]([O-])c1c(-c2ccc(Cl)cc2)[nH]c(C(F)(F)F)c1-c1csc(Br)c1
72 | 166 to 172 | COC(=O)c1ccc(=O)[nH]c1
73 | 176 | N#Cc1cc(N)n(-c2c(Cl)cc(C(F)(F)F)cc2Cl)c1
74 | 238 to 242 | COc1ccc2nc(-n3ccnc3)nc(NCCS(C)=O)c2c1 (stereo not drawn)
75 | 170 | Cc1cc(C)c2nc(NCCCO)n(Cc3nc(C)ccc3O)c2c1
76 | 99 to 101 | CN(C(=O)c1cccc(Cn2cnc3ccccc32)c1)C1CCCCC1
77 | 145 to 146 | CCOC(=O)c1cc(Nc2cccc(Cl)c2)c(C(=O)OCC)cc1Nc1cccc(Cl)c1
78 | 134 | Clc1ccc(COC(C=Cc2ccccc2)Cn2ccnc2)c(Cl)c1 (stereo not drawn)
79 | 112 to 115 | O=C(O)c1cn(C2CC2)c2cc(N3CCNC(COc4ccccc4)C3)c(F)cc2c1=O (stereo not drawn)
80 | 129 to 130 | CC(C)c1ccc2nc3c(C(=O)NCCCCc4cccnc4)cccn3c(=O)c2c1
81 | 97 to 100 | Cc1cccc(-c2[nH]c(C(C)C)nc2-c2cccc(-c3cccc(S(C)(=O)=O)c3)c2)n1
82 | 64 to 66 | C#CCCCC(=O)c1nc(C(C)(C)C)c(O)c(C(C)(C)C)n1
83 | 148 to 150 | Oc1ncnc(C(F)F)c1Cl
84 | 173 to 174 | COc1cccc(CC(=O)c2c(O)c3cccnc3n(-c3ccccc3)c2=O)c1
85 | 200 to 202 | COc1ccc2c(c1)nnc1cc(OC)ccc12
86 | 213 to 215 | FC(F)(F)c1cc(Cl)c(-c2nc(C(F)(F)F)c[nH]2)c(Cl)c1
87 | 126 to 128 | O=[N+]([O-])c1ccc(C=Cc2ccc(N(CCCCCCO)CCCCCCO)cc2)cc1
88 | 98 to 100 | CCCCNC(=O)c1ccc(Cl)c(-n2nc(CCCC)n(Cc3ccc(-c4ccccc4S(=O)(=O)NC(=O)OC(C)(C)C)cc3F)c2=O)c1
89 | 174 to 176 | O=C(C=Cc1cccc([N+](=O)[O-])c1)N1CCc2c([nH]c3ccccc23)C1c1ccc2c(c1)CCO2 (stereo not drawn)
90 | 168 to 170 | O=C(O)CC(CC(=O)O)c1ccc(O)cc1
91 | 111 to 113 | OCc1csc(-n2cccc2)n1

Row | SMILES | melting point [°C]
92 | CCN1C(=O)C(F)N=C(c2ccccc2)c2cc(Cl)ccc21 (stereo not drawn) | 156 to 158
93 | Cc1c([N+](=O)[O-])cc(S(F)(F)(F)(F)F)cc1[N+](=O)[O-] | 108 to 109
94 | CCC(NS(=O)(=O)c1ccc(Cl)cc1)P(=O)(Oc1ccccc1)Oc1ccccc1 (stereo not drawn) | 136 to 138
95 | CN(C)C12CN3CN(CN(C3)C1)C2 | 110 to 111
96 | C=C1CC2C(CCC3(C)C2C=CC3(C)O)C2(C)CCC(=O)C=C12 (stereo not drawn) | 162
97 | CCOC(OCC)N1CCNC1=N[N+](=O)[O-] | 100 to 102
98 | COc1ccc(/C=C/C(=O)N[C@@H]2N=C(c3ccccc3)c3ccccc3N(C)C2=O)cc1 | 129 to 133
